# Data: patent publication US20260224512A1, “USE OF 5-METHOXY-2-AMINOINDAN ("MEAI") IN METHODS FOR TREATING METABOLIC SYNDROME” (Clearmind Labs Corp., priority 2022, published 2026)
# Experiments:
# C57BL/6 mice [1] = test: Acute multi-parameter metabolic assessment (food and water intake, respirometry); type: in vivo
# Procedure: (§1) Male 6-week-old C57BL/6 mice (Envigo, Israel) were maintained under a 12-h light/dark cycle and fed ad libitum. A total of 32 animals were divided into four experimental groups (N=8 mice per group) receiving single doses of 40, 60, or 100 mg/kg of MEAI or vehicle (sterile water), which was administered via oral gavage two hours prior to the dark phase. The animals were monitored for 48 hours post-dose for drug tolerability, food and water intakes as well as activity and metabolic parameters. At the end of the experiment, the animals were euthanized, and tissues (brain, liver, fat, and kidney) and blood were collected and stored frozen for future analyses. To generate diet-induced obesity, C57BI6/J mice were fed either a high-fat diet (HFD) (60% of calories from fat, 20% from protein, and 20% from carbohydrates; Research Diet, D12492) or a standard laboratory diet (STD, 14% fat, 24% protein, 62% carbohydrates; NIH-31 rodent diet) for 18 weeks.
# (§2) Multi-parameter metabolic assessment. The metabolic profiles and food and water intakes of the mice were assessed by using the Promethion High-Definition Behavioral Phenotyping System (Sable Instruments, Inc., Las Vegas, NV, USA). Data acquisition and instrument control were performed using MetaScreen software version 2.2.18.0, and the obtained raw data were processed using ExpeData version 1.8.4 using an analysis script detailing all aspects of data transformation. Mice with free access to food and water were subjected to a standard 12 h light/12 h dark cycle, which consisted of a 48 h acclimation period followed by 24 h of sampling. Respiratory gases were measured by using the GA-3 gas analyzer (Sable Systems, Inc., Las Vegas, NV, USA) using a pull-mode, negative pressure system. Air flow was measured and controlled by FR-8 (Sable Systems, Inc., Las Vegas, NV, USA), with a set flow rate of 2000 mL/min. Water vapor was continuously measured and its dilution effect on O2 and CO2 was mathematically compensated. Respiratory exchange rate (RER) was calculated as the ratio of CO2 produced (VCO2) to O2 consumed (VO2) using Equation (1): […]
# (§3) Total energy expenditure (TEE) was calculated using VO2 and RER, according to Equation (2): […]
# (§4) Fat oxidation (FO) and carbohydrate oxidation (CHO) were calculated using VO2 and VCO2 based on Equations (3) and (4), respectively: […]
# C57BL/6 mice [2] = test: Sucrose preference test; type: in vivo; details: single dose 40 mg/kg
# Procedure: Sucrose Preference Test. Thirteen-week-old male C57BL/6 mice maintained on a STD and housed individually were habituated to two water bottles in their home cage for 48 h prior to the test. Baseline intake was measured by weighing the bottles. On the test day (Day 1), 2 h before the onset of the dark phase, fresh water and a 1.5% sucrose solution were added to the bottles, and mice were subsequently treated orally with MEAI (40 mg/kg, N=8) or sterile water (N=8). The mice were allowed to drink from either bottle freely for 24 h, after which the bottles were weighed to measure consumption. The study was repeated for an additional day (Day 2), with the bottles switched in position (in the cage) to account for side preference. The sucrose and water intake over the two days were averaged, and the sucrose preference index was calculated as the average consumed sucrose solution divided by the average volume of total consumed liquid (average water plus average sucrose solution).
# DIO mouse model [3] = test: Chronic MEAI in HFD-induced obesity (DIO) model: body weight and body composition; type: in vivo, mice; details: 28 days
# Procedure: (§5) Effect of MEAI on Obesity. Male C57BL/6 mice were used to establish DIO by feeding them a high-fat diet (HFD; 60% Kcal fat, 20% Kcal protein, and 20% Kcal carbohydrates; Research Diet, D12492) for 18 weeks. After this period, mice were treated with either vehicle (sterile water, N=8) or MEAI (N=11) daily for 28 days by gavage at a dose of 40 mg/kg/day. Age-matched control mice (N=10) on a standard diet (STD; 14% Kcal fat, 24% Kcal protein, 62% Kcal carbohydrates; NIH-31 rodent diet) and received vehicle daily. The body weight of all mice was monitored daily, and total body fat and lean mass were determined by EchoMRI-100H™ (Echo Medical Systems LLC, Houston, TX, USA). On Day 29, at the end of the experimental period, mice were euthanized by a cervical dislocation under anesthesia. The kidneys, brain, liver, and fat pads were removed and weighed, and samples were either snap-frozen or fixed in buffered 4% formalin. Trunk blood was collected to determine biochemical parameters.
# C57BL/6 mice [4] = test: Acute single-dose tolerability of MEAI; type: in vivo
# Procedure: as §1
# DIO mouse model [5] = test: Kidney and liver weight in DIO mice; type: in vivo; details: 40 mg/kg/day, HFD-fed mice
# Procedure: as §5
# DIO mouse model [6] = test: Hepatic triglyceride and cholesterol content, Oil Red O staining in DIO mice; type: in vivo; details: 40 mg/kg/day
# Procedure: as §5
# Hepatic Triglyceride and Cholesterol Content. Liver tissue was extracted as described in (Tam et al., 2012), and its cholesterol and triglycerides contents were determined using a Cobas C-111 chemistry analyzer (Roche, Switzerland).
# Histopathology. First, 5 μm paraffin-embedded liver sections from 5 animals per group were stained with hematoxylin-eosin staining. Liver images were captured using a Zeiss Axio Scope A1 light microscope (Carl Zeiss AG, Jena, Germany equipped with a Zeiss AxioCam ICc5 color camera. Ten random 40× fields of view were taken from each animal to obtained representative images.
# Oil Red O staining. Liver cryosections (8 μm) were stained with Oil Red O (Cat #ab150678; Abcam) following the manufacturer's protocol. Images were acquired as described above. For quantitative analysis of Oil Red O staining, the area of lipid droplets in the liver cryosections was measured using the ImageJ software.
# DIO mouse model [7] = test: Glucose tolerance test (ipGTT), insulin tolerance test (ipITT) and glycemic parameters in DIO mice; type: in vivo; details: 40 mg/kg/day
# Procedure: as §5
# Glucose Tolerance Test (ipGTT) and the Insulin Tolerance Test (ipITT). On day 25 of the experiment, mice were subjected to an overnight fasting and then injected with glucose (1.5 g/kg i.p.) on the following day (day 26). Blood glucose levels were determined at 0, 15, 30, 45, 60, 90, and 120 min after injection using the Contour® glucometer (Bayer, Pittsburgh, PA, USA). The mice were then fasted for 6 h on the next day (day 27) before being administered insulin (0.75 U/kg, i.p.; Actrapid vials, Novo Nordisk A/S, Bagsværd, Denmark). Blood glucose levels were determined at the same intervals as described above. To assess insulin resistance, the homeostasis model assessment insulin resistance (HOMA-IR) was calculated as fasting serum insulin ([μU/mL]×fasting plasma glucose [mmol/L]/22.5). The relative insulin sensitivity index (ISI) was calculated as 1/(glucose×insulin)×1000, with glucose expressed as mg/dl and insulin as mU/L.
# (§6) Blood and urine biochemistry. Serum levels of alanine aminotransferase (ALT), aspartate aminotransferase (AST), alkaline phosphatase (ALP), cholesterol, triglycerides, high-density lipoprotein (HDL), and low-density lipoprotein (LDL) were determined by using the Cobas C-111 chemistry analyzer (Roche, Switzerland). Blood urea nitrogen (BUN) was calculated based on serum urea levels as follows: BUN (mg/dL)=Urea (mg/dL)/2.1428. Fasting blood glucose was measured using the Contour® glucometer (Bayer, Pittsburgh, PA). Serum insulin was determined using an Ultra-Sensitive Mouse Insulin ELISA kit (Crystal Chem, Inc., Elk Grove Village, IL, USA).
# DIO mouse model [8] = test: Blood biochemistry in DIO mice; type: in vivo; details: 40 mg/kg/day
# Procedure: as §5, §6
# DIO mouse model [9] = test: Chronic MEAI in DIO model: food consumption and energy metabolism; type: in vivo, mice; details: 40 mg/kg/day
# Procedure: as §5, §2, §3, §4
# DIO mouse model [10] = test: Chronic MEAI in DIO model: wheel running and locomotive activity; type: in vivo, mice; details: 40 mg/kg/day
# Procedure: as §5
# (§7) Wheel running and locomotive activity. The assessment of wheel running and locomotor activity was performed using the Promethion High-Definition Behavioral Phenotyping System (Sable Instruments, Inc., Las Vegas, NV, USA). Wheel revolutions were measured with a monitor that recorded voluntary wheel running activity, and locomotor activity was quantified using disruptions of infrared XYZ beam arrays, with a beam spacing of 0.25 cm.
# C57BL/6 mice [11] = test: Acute wheel running and locomotive activity; type: in vivo
# Procedure: as §1, §7
# [12] = single dose 40, 60, 100 mg/kg, 24-hour period
# [13] = single dose, 60 and 100 mg doses
# [14] = compared to HFD vehicle control
# [15] = compared to HFD vehicle-treated group
# [16] = in comparison with HFD-vehicle group
# [17] = single dose, 40 mg/kg and above
compound,measurement,setting,value
"COc1ccc2c(c1)CC(N)C2 (stereo not shown) [MEAI, 5-methoxy-2-aminoindan]",carbohydrate oxidation (CHO) rate,C57BL/6 mice [1]; [12],corresponding elevations
same,fat oxidation (FO) rate,C57BL/6 mice [1]; [12],corresponding elevations
same,total energy expenditure (TEE),C57BL/6 mice [1]; [12],significant dose-dependent increases
same,rate of carbon dioxide emission (VCO2),C57BL/6 mice [1]; [13],higher rates
same,rate of oxygen consumption (VO2),C57BL/6 mice [1]; [13],higher rates
same,respiratory exchange rate (RER),"C57BL/6 mice [1]; single dose, light phase, 60 and 100 mg doses",increase
same,water consumption,"C57BL/6 mice [1]; single oral dose 40, 60 or 100 mg/kg",no notable changes
same,feeding patterns (food intake),"C57BL/6 mice [1]; single oral dose 40, 60 or 100 mg/kg, dark and light phases, vs vehicle",did not reach statistical significance
same,water intake levels,C57BL/6 mice [2],without any accompanying decrease
same,acute preference for sucrose solution,"C57BL/6 mice [2]; 1.5% sucrose vs water, most evident in initial 24-hour period",significantly reduced
same,preference for sucrose solution,C57BL/6 mice [2]; subsequent 24-hour period,slight reduction
same,body weight of HFD-fed mice,DIO mouse model [3]; 40 mg/kg/day by gavage,significantly reduced
same,decrease in total body weight compared to the obese vehicle-treated group,"DIO mouse model [3]; 40 mg/kg/day by gavage, HFD-fed mice",~15%
same,adiposity associated with obesity,"DIO mouse model [3]; 40 mg/kg/day, HFD-fed mice",reduced
same,"lean body mass, lean body mass ratio, net lean mass","DIO mouse model [3]; 40 mg/kg/day, HFD-fed mice",preserved
same,overall fat mass,"DIO mouse model [3]; 40 mg/kg/day, HFD-fed mice",reducing
same,deaths after administration,"C57BL/6 mice [4]; single oral dose 100 mg/kg, within a few hours, with stress of metabolic testing",two subjects in the 100 mg/kg group died
same,"drug tolerability, changes in behavior","C57BL/6 mice [4]; single oral dose 40 and 60 mg/kg, lean mice","well-tolerated, with no observable changes in behavior"
same,kidney-to-body weight ratio,DIO mouse model [5],normalized
same,liver weight,DIO mouse model [5],reduced
same,liver weight to body weight ratio,DIO mouse model [5],normalized
same,hepatic cholesterol levels,DIO mouse model [6]; [14],trend toward a reduction
same,liver triglycerides,DIO mouse model [6]; [14],significant reductions
same,Oil Red O staining,DIO mouse model [6]; [15],decrease
same,lipid vacuole numbers,DIO mouse model [6]; [15],reduced
same,HOMA-IR,DIO mouse model [7],beneficial effects
same,fasting blood glucose,DIO mouse model [7],reduced
same,glucose metabolism (glucose and insulin tolerance tests),DIO mouse model [7],significant improvement
same,insulin levels,DIO mouse model [7],reduced
same,insulin sensitivity (insulin tolerance test),DIO mouse model [7],normalized
same,insulin sensitivity index (ISI),DIO mouse model [7],beneficial effects
same,HDL-to-LDL ratio,DIO mouse model [8]; HFD-fed mice,increased
same,blood urea nitrogen (BUN) levels,DIO mouse model [8]; HFD-fed mice,slight improvements
same,cholesterol levels,"DIO mouse model [8]; HFD-fed mice, not statistically significant",tendency towards decreased
same,circulating triglyceride levels,DIO mouse model [8]; any of the study groups,no significant alterations
same,HDL levels,DIO mouse model [8]; compared to HFD vehicle group,without notable changes
same,LDL levels,DIO mouse model [8]; compared to HFD vehicle group,significantly reduced
same,ALP levels,DIO mouse model [8]; compared to HFD-vehicle group,significantly reduced
same,ALT levels,DIO mouse model [8]; compared to HFD-vehicle group,did not significantly alter
same,AST levels,DIO mouse model [8]; compared to HFD-vehicle group,did not significantly alter
same,carbohydrate oxidation (CHO),DIO mouse model [9]; HFD-fed mice,no effect of the drug itself
same,respiratory exchange rate (RER),"DIO mouse model [9]; HFD-fed mice, in comparison to STD vehicle group",slightly decreased
same,food intake per meal,"DIO mouse model [9]; HFD-fed mice, both MEAI and vehicle HFD groups",reduction in food intake per meal
same,carbon dioxide production,DIO mouse model [9]; [15],slightly increased
same,oxygen consumption,DIO mouse model [9]; [15],slightly increased
same,energy expenditure,"DIO mouse model [9]; compared to both HFD and STD vehicle groups, light and dark phases",significant increase
same,overall rate of fat oxidation (FO),DIO mouse model [9]; compared to both HFD- and STD-vehicle groups,increase
same,water intake,DIO mouse model [9]; obese mice,did not have any effect
same,"pedestrian locomotive activity, speed and total distance relative to STD-vehicle group (over-stimulatory effect)",DIO mouse model [10]; HFD-fed mice,did not surpass the levels of the STD-vehicle treated group
same,time spent engaging in various activities within the cage,DIO mouse model [10]; HFD-fed mice,preference for voluntary activities
same,voluntary wheel running,DIO mouse model [10]; HFD-fed mice,increased capability
same,voluntary actions such as pedestrian activity and grooming (ambulatory activity),"DIO mouse model [10]; HFD-fed mice, throughout the day, more prominent in dark phase",significantly increased
same,pedestrian locomotion speed,DIO mouse model [10]; [16],increased
same,pedestrian locomotive activity,DIO mouse model [10]; [16],increased
same,total distance travelled,DIO mouse model [10]; [16],increased
same,voluntary wheel running,C57BL/6 mice [11]; single dose 100 mg/kg,significant suppression
same,total number of beam breaks (ambulatory and fine movements),"C57BL/6 mice [11]; single dose 40, 60, 100 mg/kg",no significant changes
same,voluntary wheel running,C57BL/6 mice [11]; single dose 40 and 60 mg/kg,minor elevations
same,directed voluntary activity (pedestrian locomotion),C57BL/6 mice [11]; [17],significant and dose-dependent increase
same,pedestrian speed,C57BL/6 mice [11]; [17],significant and dose-dependent increase
same,total pedometer count,"C57BL/6 mice [11]; single dose, all doses tested (40, 60, 100 mg/kg)",increase
